Values after ≈ are worked out from the molar mass of the structure shown.
How the values were obtained:
Assay type in all cases: functional
[1] = tested on: Staphylococcus aureus; test: Antibacterial activity against wild type Staphylococcus aureus ATCC 29213 after 16 to 20 hrs by CLSI-based microbroth dilution method
[2] = tested on: Staphylococcus aureus; test: Antibacterial activity against methicillin resistant Staphylococcus aureus 33591 after 16 to 20 hrs by CLSI-based microbroth dilution method
[3] = tested on: Escherichia coli; test: Antibacterial activity against wild type Escherichia coli ATCC 25922 after 16 to 20 hrs by CLSI-based microbroth dilution method
[4] = tested on: Escherichia coli; test: Antibacterial activity against Escherichia coli J53 expressing SHV5/ AmpC/TEM-1 after 16 to 20 hrs by CLSI-based microbroth dilution method
[5] = tested on: Klebsiella pneumoniae; test: Antibacterial activity against wild type Klebsiella pneumoniae CI 09 after 16 to 20 hrs by CLSI-based microbroth dilution method
[6] = tested on: Klebsiella pneumoniae; test: Antibacterial activity against Klebsiella pneumoniae UMM expressing SHV5/KPC-2/TEM-1 after 16 to 20 hrs by CLSI-based microbroth dilution method
[7] = tested on: Klebsiella pneumoniae; test: Antibacterial activity against Klebsiella pneumoniae A-1797 expressing KPC-2/VIM-4/CMY-4 after 16 to 20 hrs by CLSI-based microbroth dilution method
[8] = tested on: Klebsiella pneumoniae; test: Antibacterial activity against Klebsiella pneumoniae 11978 expressing OXA-48 after 16 to 20 hrs by CLSI-based microbroth dilution method
[9] = tested on: Enterobacter cloacae; test: Antibacterial activity against Enterobacter cloacae 144200 expressing p99 AmpC after 16 to 20 hrs by CLSI-based microbroth dilution method
[10] = tested on: Klebsiella aerogenes; test: Antibacterial activity against Enterobacter aerogenes 188548 expressing AmpC after 16 to 20 hrs by CLSI-based microbroth dilution method
[11] = tested on: Pseudomonas aeruginosa; test: Antibacterial activity against wild type Pseudomonas aeruginosa 27853 after 16 to 20 hrs by CLSI-based microbroth dilution method
[12] = tested on: Pseudomonas aeruginosa; test: Antibacterial activity against Pseudomonas aeruginosa Ps296 AmpC/VIM-2/TEM-1 after 16 to 20 hrs by CLSI-based microbroth dilution method

SMILES | MIC [1] [mg/L] | MIC [2] [mg/L] | MIC [3] [mg/L] | MIC [4] [mg/L] | MIC [5] [mg/L] | MIC [6] [mg/L] | MIC [7] [mg/L] | MIC [8] [mg/L] | MIC [9] [mg/L] | MIC [10] [mg/L] | MIC [11] [mg/L] | MIC [12] [mg/L]
Cc1onc(-c2ccccc2)c1C(=O)N[C@@H]1C(=O)N2[C@@H]1SC(C)(C)[C@@H]2C(=O)O [OXACILLIN] | 0.125 (≈ 0.311 µM) | > 128 | > 128 | > 128 | > 128 | > 128 | > 128 | > 128 | > 128 | > 128 | > 128 | > 128
C[C@@H](O)[C@H]1C(=O)N2C(C(=O)O)=C(S[C@@H]3CN[C@H](C(=O)N(C)C)C3)[C@H](C)[C@H]12 [MEROPENEM] | 0.06 (≈ 0.156 µM) | 32 (≈ 83.4 µM) | 0.03 (≈ 0.0782 µM) | 0.06 (≈ 0.156 µM) | 0.06 (≈ 0.156 µM) | – | – | – | 0.25 (≈ 0.652 µM) | 2 (≈ 5.22 µM) | 1 (≈ 2.61 µM) | –
